Measured values as given in ChEMBL document CHEMBL5584340, “Discovery of Novel Antiosteoporosis Leads with Bone Resorption Inhibition and Anabolic Promotion through a Chemotype-Assembly Approach” (J Med Chem, 2024).
Activity calls are given as the source filed them. No cut-off for these calls is given here.

What was measured:
BMDM [1] = assay: Anti-osteoclastogenic activity in M-CSF/RANKL-induced C57BL/6 mouse BMDM cells assessed as inhibition of M-CSF/RANKL-stimulated osteoclast differentiation at 10 uM measured after 5 days by TRAP staining based microscopic analysis relative to control; format: functional; set-up: scale not given: the % may be the effect or the level left; conditions: time 5 day
[2] = Cytotoxicity against mouse RAW264.7 cells incubated for 48 hrs by CCK-8 assay; format: toxicity, cell-based
BMDM [3] = assay: Anti-osteoclastogenic activity in M-CSF/RANKL-induced C57BL/6 mouse BMDM cells assessed as inhibition of M-CSF/RANKL-stimulated osteoclast differentiation measured after 5 days by TRAP staining based microscopic analysis; format: functional, cell-based; conditions: C57BL/6, BMDM, 120 h
C3H 10T1/2 [4] = assay: Anabolic activity in mouse C3H 10T1/2 cells by measuring fold change in osteoblast differentiation at 10 uM incubated for 7 days by ALP staining based analysis; format: functional; conditions: time 7 day
C3H 10T1/2 [5] = assay: Induction of osteoclastogenesis in mouse C3H 10T1/2 cells assessed as upregulation of RANKL gene expression at 1 uM incubated for 7 days by RT-qPCR analysis; format: functional, cell-based; conditions: time 7.0 day
C3H 10T1/2 [6] = assay: Induction of osteoblast differentiation in mouse C3H 10T1/2 cells at 10 uM incubated for 7 days by ALP staining based analysis; format: functional, cell-based; conditions: time 7.0 day
C3H 10T1/2 [7] = assay: Induction of osteoblast mineralization in mouse C3H 10T1/2 cells assessed as increase in calcium deposition at 10 uM measured after 14 days by Alizarin Red S staining based analysis; format: functional, cell-based; conditions: time 14.0 day
C3H 10T1/2 [8] = assay: Induction of osteoblastogenesis in mouse C3H 10T1/2 cells assessed as upregulation of ALP gene expression at 1 uM incubated for 7 days by RT-qPCR analysis; format: functional, cell-based; conditions: time 7.0 day
C3H 10T1/2 [9] = assay: Induction of osteoblastogenesis in mouse C3H 10T1/2 cells assessed as upregulation of SP7 gene expression at 1 uM incubated for 7 days by RT-qPCR analysis; format: functional, cell-based; conditions: time 7.0 day
C3H 10T1/2 [10] = assay: Induction of osteoblastogenesis in mouse C3H 10T1/2 cells assessed as upregulation of SPARC gene expression at 1 uM incubated for 7 days by RT-qPCR analysis; format: functional, cell-based; conditions: time 7.0 day
BMDM [11] = assay: Anti-osteoclastogenic activity in M-CSF/RANKL-induced C57BL/6 mouse BMDM cells assessed as downregulation of ATP6VOD2 mRNA expression at 1 uM incubated for 7 days by RT-qPCR analysis; format: functional, cell-based; conditions: time 7.0 day
BMDM [12] = assay: Anti-osteoclastogenic activity in M-CSF/RANKL-induced C57BL/6 mouse BMDM cells assessed as downregulation of CTSK mRNA expression at 1 uM incubated for 7 days by RT-qPCR analysis; format: functional, cell-based; conditions: time 7.0 day
BMDM [13] = assay: Anti-osteoclastogenic activity in M-CSF/RANKL-induced C57BL/6 mouse BMDM cells assessed as downregulation of C-Fos mRNA expression at 1 uM incubated for 7 days by RT-qPCR analysis; format: functional, cell-based; conditions: time 7.0 day
C3H 10T1/2 [14] = assay: Induction of osteoblast mineralization in mouse C3H 10T1/2 cells assessed as increase in calcium deposition at 1 uM measured after 14 days by Alizarin Red S staining based analysis; format: functional, cell-based; conditions: time 14.0 day
BMDM [15] = assay: Anti-osteoclastogenic activity in M-CSF/RANKL-induced C57BL/6 mouse BMDM cells assessed as downregulation of TRACP mRNA expression at 1 uM incubated for 7 days by RT-qPCR analysis; format: functional, cell-based; conditions: time 7.0 day

SMILES	Activity (BMDM [1])	IC50 (BMDM [3])	further results
NC(Cc1cc(I)c(Oc2cc(I)c(O)c(I)c2)c(I)c1)C(=O)O (configuration not stated) [THYROXINE]	<10%		
Cc1cc(C)c(S(=O)(=O)Nc2ccc(C(=O)O)cc2)cc1C	<10%		
O=C(O)c1cccc(Nc2nc3ccccc3[nH]2)c1	33%		
O=C(O)c1cccc(NS(=O)(=O)c2ccc(I)cc2)c1	<10%		
COc1ccc(-c2nc(NC(=O)C3CCCCC3C(=O)O)sc2C)cc1 (configuration not stated)	<10%		
O=C(O)c1cc(Cl)ccc1C(=O)Nc1nccs1		2.02 µM	CC50 at 48 h [2]: 144 µM
Cc1cccc(C)c1NC(=O)c1ccccc1C(=O)O [FTAXILIDE]	80%		fold change (FC) (C3H 10T1/2 [4]): 6
Cc1csc(NC(=O)c2ccccc2C(=O)O)n1		12.4 µM	CC50 at 48 h [2]: 212 µM
Cc1ccc(-c2nc3ccccc3c(C(=O)O)c2C)cc1	<10%		
O=C(O)c1ccccc1C(=O)Nc1ccccn1		14.4 µM	CC50 at 48 h [2]: 3820 µM
COc1ccc(-c2cc(C(=O)O)c3ccccc3n2)cc1OC	40%		
COc1cccc(C(=O)O)c1C(=O)Nc1nccs1		3.94 µM	CC50 at 48 h [2]: 36.3 µM
COc1ccc(-c2occ(C(=O)O)c2C(=O)O)cc1	<10%		
O=C(O)c1ccc(-c2cnc3ccccc3n2)cc1	<10%		
CC(C)(C)c1ccc(-c2cc(C(=O)O)c3ccccc3n2)cc1	80%		fold change (FC) (C3H 10T1/2 [4]): <2
Cc1cc(C(=O)O)ccc1-c1ccc(CO)o1	<10%		
O=C(O)c1ccc2[nH]c(-c3cccc(-c4nc5cc(C(=O)O)ccc5[nH]4)c3)nc2c1	20%		
Cn1ncc2c(Nc3ccc(C(=O)O)cc3)ncnc21	50%		fold change (FC) (C3H 10T1/2 [4]): 3.2
Cc1cccc(C(=O)Nc2scc(-c3cccs3)c2C(=O)O)c1	<10%		
O=C(O)c1cc(Cl)ccc1C(=O)Nc1nc2ccccc2s1		3.5 µM	CC50 at 48 h [2]: 1330 µM
O=C(O)c1ccc(N2C(=O)CSC2=S)cc1	79%		fold change (FC) (C3H 10T1/2 [4]): 7.5
O=C(O)c1ccccc1C(=O)Nc1nccs1	75%	8.5 µM	fold change (FC) (C3H 10T1/2 [4]): 11.4; Activity (C3H 10T1/2 [5]): inactive; Activity (C3H 10T1/2 [6]): Active; CC50 at 48 h [2]: 178 µM; Activity (C3H 10T1/2 [7]): Active; Activity (C3H 10T1/2 [8]): Active; Activity (C3H 10T1/2 [9]): Active; Activity (C3H 10T1/2 [10]): Active
CCOC(=O)c1sc(NC(=O)c2cc3ccccc3cc2C(=O)O)nc1C		2.35 µM	CC50 at 48 h [2]: 506 µM
O=C(Nc1nccs1)c1cccc(F)c1C(=O)O		3.16 µM	CC50 at 48 h [2]: 930 µM

SMILES	Activity (BMDM [1])	IC50 (BMDM [3])	further results
O=C(O)c1ccccc1C(=O)Nc1nc2ccccc2s1		2.35 µM	CC50 at 48 h [2]: 380 µM
Cc1ccc(-c2cc(C(=O)O)c3cccc(C)c3n2)cc1	<10%		
Cc1ccc(C(=O)Nc2nccs2)c(C(=O)O)c1		12.8 µM	CC50 at 48 h [2]: 46.9 µM
NCCCC(O)(P(=O)([O-])O)P(=O)(O)O.[Na+] [ALENDRONATE SODIUM]	81%	0.39 µM	
O=C(O)c1ccccc1C(=O)Nc1nc2c(s1)CCCC2	<10%		
O=C(Nc1nccs1)c1cccc(O)c1C(=O)O		> 33 µM	
Cc1ccc(-c2cc(C(=O)O)c3ccccc3n2)c(C)c1	<10%		
COc1cccc(-c2cc(C(=O)O)c3ccccc3n2)c1	<10%		
Cc1cccc(NC(=O)c2ccccc2C(=O)O)c1C	<10%		
Nc1cccc(-c2cc(C(=O)O)c3ccccc3n2)c1	50%		fold change (FC) (C3H 10T1/2 [4]): <2
Cc1ccc2nc(-c3ccc(Cl)cc3)cc(C(=O)O)c2c1	80%		fold change (FC) (C3H 10T1/2 [4]): 2.4
O=C(O)c1ccccc1SCc1cc(O)nc(O)n1	90%		fold change (FC) (C3H 10T1/2 [4]): 8.2
O=C(O)c1cc2ccccc2cc1C(=O)Nc1nccs1		1.05 µM	Activity (C3H 10T1/2 [5]): inactive; Activity (BMDM [11]): Active; Activity (BMDM [12]): Active; CC50 at 48 h [2]: 490 µM; Activity (BMDM [13]): Active; Activity (C3H 10T1/2 [14]): Active; Activity (C3H 10T1/2 [8]): Active; Activity (C3H 10T1/2 [9]): Active; Activity (C3H 10T1/2 [10]): Active; Activity (BMDM [15]): Active
COC(=O)c1ccccc1C(=O)Nc1nccs1		28.1 µM	CC50 at 48 h [2]: 498 µM
CN1C(=O)[C@@H](/N=N/c2ccccc2C(=O)O)N(C)C1=S	50%		fold change (FC) (C3H 10T1/2 [4]): 3.9
NC(Cc1cc(I)c(Oc2ccc(O)c(I)c2)c(I)c1)C(=O)O (configuration not stated) [RATHYRONINE]	<10%		
CCc1ccc(-c2cc(C(=O)O)c3ccccc3n2)cc1	30%		
O=C1NC(=O)C(=NNc2cccc(C(=O)O)c2)C(=O)N1	<10%		
CCOC(=O)c1sc(NC(=O)c2ccccc2C(=O)O)nc1C		> 33 µM	
O=C(O)C1OC(Oc2cc3oc(-c4ccc(O)cc4)cc(=O)c3c(O)c2O)C(O)C(O)C1O (configuration not stated)	80%		fold change (FC) (C3H 10T1/2 [4]): <2
Cc1ccc(C)c(-c2cc(C(=O)O)c3ccccc3n2)c1	<10%		
CN(CCCC(=O)O)c1nc(-c2ccc(Br)cc2)cs1	<10%		
COc1ccccc1-c1cc(C(=O)O)c2ccccc2n1	<10%		
Nc1ccc(-c2cc(C(=O)O)c3ccccc3n2)cc1	<10%		
